What was measured:
cardiac β-receptors [1] = target: T1, cardiac β-receptors (Felis catus, UniProt Q9TST6); assay: Intrinsic beta mimetic activity on the heart (increase of heart rate), reserpinized anaesthetized cat; type: in vivo; conditions: i.v.; for Intrinsic activity Δbeats/min: increase of heart rate after drug; for Intrinsic activity % of isoprenaline: maximal heart rate response obtained with high doses of isoprenaline
T1 construct: All compounds were thereby tested in anaeshtetized cats; from tissue; host or cells: heart of the living, reserpinized, anaesthetized cat
T1 sequence (Q9TST6 whole entry): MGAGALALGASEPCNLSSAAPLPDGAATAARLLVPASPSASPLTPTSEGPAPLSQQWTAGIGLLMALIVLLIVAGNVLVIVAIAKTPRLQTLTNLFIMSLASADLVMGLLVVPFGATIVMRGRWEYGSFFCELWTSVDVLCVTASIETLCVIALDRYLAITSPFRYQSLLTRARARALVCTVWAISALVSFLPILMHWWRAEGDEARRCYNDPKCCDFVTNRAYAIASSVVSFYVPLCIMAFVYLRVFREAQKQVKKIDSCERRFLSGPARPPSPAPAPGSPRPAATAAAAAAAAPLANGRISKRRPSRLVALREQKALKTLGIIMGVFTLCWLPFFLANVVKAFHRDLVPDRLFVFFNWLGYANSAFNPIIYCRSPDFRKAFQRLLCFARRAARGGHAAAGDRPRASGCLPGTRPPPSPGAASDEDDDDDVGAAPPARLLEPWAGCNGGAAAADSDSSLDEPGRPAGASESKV
Procedure: (§1) The agents of the present invention were tested as regards their biological properties. All compounds were thereby tested in anaeshtetized cats (males and females weighing 2.5-3.5 kg) pretreated with reserpine (5 mg/kg body-weight administered intramusculary) about 16 hours before the experiments. The animals were pretreated with reserpine in order to eliminate the endogenous sympathetic control of heart rate and vascular smooth muscle tone. The cats were anaesthetized with pentobarbital (30 mg/kg bodyweight administered i.p. ) and artificially ventilated with room air. A bilateral vagotomy was performed in the neck. Blood pressure was obtained from a cannulated carotid artery and heart rate was registered from a cardiotachometer, triggered by the electrocardiogram (ECG). Vascular resistance in one hind leg was recorded by an autoperfusion technique. Intrinsic beta mimetic activity on the heart was seen as increased heart rate after drug administration. The test compounds were given intravenously in logarithmically increasing doses. Before the first dose and between each of the following doses (0.012-51.2 μmol/kg) of the test compound a dose of isoproterenol (0.1 μg/kg) was injected intravenously. Blockade of the heart rate and vascular resistance response to isoproterenol was calculated for each dose and expressed as percent decrease of the response obtained when isoproterenol was injected before any dose of the test compound. Percent blockade was then plotted against the logarithm of the dose. ED50 values i.e. doses producing a reduction of the original response to isoproterenol to 50 percent were estimated from these dose-response curves. At the end of each experiment high doses of isoprenaline were given in order to obtain the maximal heart rate response.

vascular β-receptors = target: T2, vascular β-receptors (Felis catus, UniProt Q9TST5); assay: β-blockade of isoprenaline peripheral (vascular) resistance response, reserpinized anaesthetized cat, autoperfused hind leg; type: in vivo; conditions: iv, i.v. test compound, isoproterenol 0.1 μg/kg i.v., dose reducing response to 50 percent
T2 construct: All compounds were thereby tested in anaeshtetized cats; from tissue; host or cells: hind-leg vasculature of the living, reserpinized, anaesthetized cat (autoperfused)
T2 sequence (Q9TST5 whole entry, the tested form may be a part): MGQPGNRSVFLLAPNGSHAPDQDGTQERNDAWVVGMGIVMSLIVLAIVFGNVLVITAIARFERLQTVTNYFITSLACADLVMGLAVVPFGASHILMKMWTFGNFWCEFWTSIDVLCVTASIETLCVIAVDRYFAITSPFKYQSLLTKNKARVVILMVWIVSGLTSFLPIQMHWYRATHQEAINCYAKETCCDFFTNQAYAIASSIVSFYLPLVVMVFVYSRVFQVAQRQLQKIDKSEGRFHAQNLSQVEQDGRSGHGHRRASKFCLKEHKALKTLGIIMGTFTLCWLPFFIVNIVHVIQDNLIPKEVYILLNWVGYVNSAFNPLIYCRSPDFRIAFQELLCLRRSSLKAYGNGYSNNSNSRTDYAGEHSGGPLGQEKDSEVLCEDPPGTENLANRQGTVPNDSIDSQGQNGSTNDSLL
Procedure: as §1

cardiac β-receptors [2] = target: T1, cardiac β-receptors; assay: β-blockade of isoprenaline heart rate response, reserpinized anaesthetized cat; type: in vivo; conditions: iv, i.v. test compound, isoproterenol 0.1 μg/kg i.v., dose reducing response to 50 percent
Procedure: as §1

α-receptors = target: T3, α-receptors (Rattus norvegicus, UniProt P43140); assay: α-receptor blocking activity in isolated rat vas deferens (inhibition of noradrenaline contraction); conditions: noradrenaline as agonist, high pA2 = high α-receptor blocking activity
T3 construct: from tissue; host or cells: isolated rat vas deferens
T3 sequence (P43140 1-466): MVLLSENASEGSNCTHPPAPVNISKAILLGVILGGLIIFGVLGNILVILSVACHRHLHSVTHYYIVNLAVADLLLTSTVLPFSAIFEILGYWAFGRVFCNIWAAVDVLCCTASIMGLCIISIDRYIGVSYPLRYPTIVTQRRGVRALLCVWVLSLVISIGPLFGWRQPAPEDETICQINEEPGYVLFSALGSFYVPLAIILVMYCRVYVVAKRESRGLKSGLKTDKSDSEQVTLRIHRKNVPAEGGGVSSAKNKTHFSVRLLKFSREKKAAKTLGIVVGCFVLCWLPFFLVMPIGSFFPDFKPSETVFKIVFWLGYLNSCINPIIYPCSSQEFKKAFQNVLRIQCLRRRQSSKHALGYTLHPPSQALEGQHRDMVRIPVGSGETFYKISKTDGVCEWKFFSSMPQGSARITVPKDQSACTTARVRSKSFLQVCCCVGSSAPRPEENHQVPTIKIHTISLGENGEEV
Procedure: α-receptor blocking activity was tested in isolated rat vas deferens. Noradrenaline administered to the organ bath induces a contraction in vas deferens by activating α-receptors. The ability of the test compounds to inhibit this noradrenaline response was studied. The α-receptor blocking activity was expressed as pA2 values. pA2 is defined as the negative logarithm of the concentration of an antagonist (in our case the test compounds) which leads to the fact that the dose of the agonist (in our case noradrenaline) has to be doubled in order to obtain the same effect of the agonist as that obtained without the antagonist present. Thus a high pA2 value indicates a high α-receptor blocking activity of a compound.

SMILES	Intrinsic activity Δbeats/min (cardiac β-receptors [1])	Intrinsic activity % of isoprenaline (cardiac β-receptors [1])	ED50 (vascular β-receptors)	ED50 (cardiac β-receptors [2])	Kb (α-receptors)
CCCc1ccccc1OCC(O)CNCCOc1ccc(O)cc1 (centres unmarked) [C3H7; pOH, 3-[2-(4-hydroxyphenoxy)-ethylamino]-1-o-propylphenoxy-propanol-2]	0 beats/min	0 % of isoprenaline	0.02 µmol/kg	0.02 µmol/kg	126 nM
COc1ccccc1OCCNCC(O)COc1ccccc1C (centres unmarked) [CH3; 2-OCH3, 3-[2-(2methoxyphenoxy)-ethylamino]-1-o-methylphenoxy-propanol-2]	8 beats/min	8 % of isoprenaline	11 µmol/kg	4.5 µmol/kg	100 nM
Cc1ccccc1OCC(O)CNCCOc1ccccc1O (centres unmarked) [CH3; 2-OH, 3-[2-(2-hydroxyphenoxy)-ethylamino]-1-o-methylphenoxy-propanol-2]	30 beats/min	29 % of isoprenaline	17 µmol/kg	0.6 µmol/kg	1000 nM
COc1ccc(OCCNCC(O)COc2ccccc2C)cc1OC (centres unmarked) [CH3; 3,4-diOCH3, 3-[2-(3,4-dimethoxyphenoxy)-ethylamino]-1-o-methylphenoxy-propanol-2]	8 beats/min	11 % of isoprenaline	5.8 µmol/kg	1.5 µmol/kg	1000 nM
COc1ccc(OCCNCC(O)COc2ccccc2C)cc1 (centres unmarked) [CH3; 4-OCH3, 3-[2-(4-methoxyphenoxy)-ethylamino]-1-o-methylphenoxy-propanol-2]	17 beats/min	22 % of isoprenaline	8.2 µmol/kg	0.5 µmol/kg	1580 nM
OCc1ccccc1OCC(O)CNCCOc1ccc(O)cc1 (centres unmarked) [HOCH2; pOH, 3-[2-(4-hydroxyphenoxy)-ethylamino]-1-o-hydroxymethylphenoxy-propanol-2]	17 beats/min		0.05 µmol/kg	0.02 µmol/kg	501 nM
